Source: patent publication US12428408B2, “Fused heterocyclic mescaline derivatives” (Enveric Biosciences Canada Inc., priority 2022, dated 2025)

How the values were obtained:
5-HT1B (h) = biological target: T1, 5-HT1B (h) (Homo sapiens, UniProt P28222); experiment: Competition assay to measure binding affinity at 5-HT1B receptor; conditions: test ligand 10 μM; [3H]GR125743 1 nM
T1 construct: host or cells: Chem-1 (RBL) cells

NET (h) = biological target: T2, NET (h) (Homo sapiens, UniProt P23975); experiment: Competition assay to measure binding affinity at norepinephrine transporter (NET); conditions: test ligand 10 μM; [3H]nisoxetine 1 nM
T2 construct: host or cells: CHO cells

MT1 (ML1A) (h) = biological target: T3, MT1 (ML1A) (h) (Homo sapiens, UniProt P48039); experiment: Competition assay to measure binding affinity at MT1 receptor; conditions: test ligand 10 μM; [125I]2-iodomelatonin 0.01 nM
T3 construct: host or cells: CHO cells

5-HT2B (h) = biological target: T4, 5-HT2B (h) (Homo sapiens, UniProt P41595); experiment: Competition assay to measure binding affinity at 5-HT2B receptor; conditions: test ligand 10 μM; [3H]mesulergine 2 nM
T4 construct: host or cells: CHO cells

5-HT7 (h) = biological target: T5, 5-HT7 (h) (Homo sapiens, UniProt P34969); experiment: Competition assay to measure binding affinity at 5-HT7 receptor; conditions: test ligand 10 μM; [3H]LSD 4 nM
T5 construct: host or cells: HEK-293 cells

D3 (h) = biological target: T6, D3 (h) (Homo sapiens, UniProt P35462); experiment: Competition assay to measure binding affinity at D3 receptor; conditions: test ligand 10 μM; [3H]methylspiperone […]
T6 construct: host or cells: CHO cells

D2 (h) = biological target: T7, D2 (h) (Homo sapiens, UniProt P14416); experiment: Competition assay to measure binding affinity at D2L receptor; conditions: test ligand 10 μM; [3H]methylspiperone 0.3 nM
T7 construct: host or cells: HEK-293 cells

5-HT1A receptor = biological target: T8, 5-HT1A receptor (Homo sapiens, UniProt P08908); experiment: 5-HT1A receptor radioligand competition assay (SPA); type: binding; conditions: for Ki: competition with 0.5 nM 8-hydroxy-DPAT [3H], test compound 3 nM to 1 mM, read-out: 5-HT1A, Ki
T8 construct: purchased Perkin Elmer 6110501400UA
T8 sequence (P08908 1-422): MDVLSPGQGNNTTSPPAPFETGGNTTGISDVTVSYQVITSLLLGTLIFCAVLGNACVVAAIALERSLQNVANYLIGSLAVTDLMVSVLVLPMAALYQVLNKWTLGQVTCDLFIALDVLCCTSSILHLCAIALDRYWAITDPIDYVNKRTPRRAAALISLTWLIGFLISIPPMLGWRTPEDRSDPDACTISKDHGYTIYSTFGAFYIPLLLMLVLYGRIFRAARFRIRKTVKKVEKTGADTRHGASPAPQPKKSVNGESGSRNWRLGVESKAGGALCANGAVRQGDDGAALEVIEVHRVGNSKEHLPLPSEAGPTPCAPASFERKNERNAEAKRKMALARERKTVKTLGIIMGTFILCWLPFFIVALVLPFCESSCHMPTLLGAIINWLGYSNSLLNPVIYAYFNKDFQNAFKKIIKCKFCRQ

[1] = biological target: T9, human serotonin transporter (SERT) (Homo sapiens, UniProt P31645); experiment: biochemical; type: binding
T9 construct: purchased PerkinElmer RBHSTM400UA

5-HT2C (h) = biological target: T10, 5-HT2C (h) (Homo sapiens, UniProt P28335); experiment: Competition assay to measure binding affinity at 5-HT2C receptor; conditions: test ligand 10 μM; [125I](±)DOI 0.1 nM
T10 construct: host or cells: HEK-293 cells
T10 sequence (P28335 33-458): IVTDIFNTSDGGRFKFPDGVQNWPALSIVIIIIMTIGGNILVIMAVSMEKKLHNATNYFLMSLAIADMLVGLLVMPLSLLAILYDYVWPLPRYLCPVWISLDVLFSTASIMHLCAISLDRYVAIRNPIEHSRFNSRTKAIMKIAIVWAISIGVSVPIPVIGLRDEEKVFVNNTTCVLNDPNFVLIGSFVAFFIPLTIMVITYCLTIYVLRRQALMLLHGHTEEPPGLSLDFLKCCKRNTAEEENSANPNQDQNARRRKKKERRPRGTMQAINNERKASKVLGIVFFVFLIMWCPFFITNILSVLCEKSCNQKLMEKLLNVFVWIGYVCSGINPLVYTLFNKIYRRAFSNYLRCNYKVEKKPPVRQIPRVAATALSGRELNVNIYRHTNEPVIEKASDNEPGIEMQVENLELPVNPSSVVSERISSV

alpha2A (h) = biological target: T11, alpha2A (h) (Homo sapiens, UniProt P08913); experiment: Competition assay to measure binding affinity at alpha2A receptor; conditions: test ligand 10 μM, [3H]RX 821002 1 nM; for inhibition at 10 µM: read-out: α-2A, percent of control-specific binding
T11 construct: host or cells: CHO cells
T11 sequence (P08913 1-465): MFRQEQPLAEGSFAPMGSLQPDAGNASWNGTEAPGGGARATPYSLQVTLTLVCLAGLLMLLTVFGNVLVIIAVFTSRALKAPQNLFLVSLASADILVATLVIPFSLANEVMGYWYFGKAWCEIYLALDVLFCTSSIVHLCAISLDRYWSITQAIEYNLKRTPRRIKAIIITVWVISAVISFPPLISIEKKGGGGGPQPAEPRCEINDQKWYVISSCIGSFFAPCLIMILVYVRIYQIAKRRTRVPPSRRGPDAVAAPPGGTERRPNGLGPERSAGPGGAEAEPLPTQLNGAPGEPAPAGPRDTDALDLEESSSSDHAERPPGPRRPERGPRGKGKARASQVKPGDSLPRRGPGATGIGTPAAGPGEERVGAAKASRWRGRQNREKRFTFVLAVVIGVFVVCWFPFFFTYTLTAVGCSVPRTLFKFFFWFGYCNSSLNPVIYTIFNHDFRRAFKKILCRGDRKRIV

DAT (h) = biological target: T12, DAT (h) (Homo sapiens, UniProt Q01959); experiment: Competition assay to measure binding affinity at dopamine transporter (DAT); conditions: test ligand 10 μM; [3H]BTCP 4 nM
T12 construct: host or cells: CHO cells

5-HT1D (r) = biological target: T13, 5-HT1D (r) (Rattus norvegicus, UniProt P28565); experiment: Competition assay to measure binding affinity at 5-HT1D receptor; conditions: test ligand 10 μM; [3H]serotonin 1 nM
T13 construct: host or cells: CHO cells
T13 sequence (P28565 whole entry): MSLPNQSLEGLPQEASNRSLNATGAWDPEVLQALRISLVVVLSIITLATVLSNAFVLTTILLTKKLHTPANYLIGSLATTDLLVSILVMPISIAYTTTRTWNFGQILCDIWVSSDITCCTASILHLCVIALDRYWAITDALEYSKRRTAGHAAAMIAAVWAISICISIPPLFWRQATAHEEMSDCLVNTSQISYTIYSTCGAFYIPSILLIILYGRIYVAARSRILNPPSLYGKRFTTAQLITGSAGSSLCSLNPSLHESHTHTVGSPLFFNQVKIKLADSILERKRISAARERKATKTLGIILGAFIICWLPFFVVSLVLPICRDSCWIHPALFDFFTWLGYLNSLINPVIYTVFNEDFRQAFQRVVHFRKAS

T3 sequence (P48039 whole entry): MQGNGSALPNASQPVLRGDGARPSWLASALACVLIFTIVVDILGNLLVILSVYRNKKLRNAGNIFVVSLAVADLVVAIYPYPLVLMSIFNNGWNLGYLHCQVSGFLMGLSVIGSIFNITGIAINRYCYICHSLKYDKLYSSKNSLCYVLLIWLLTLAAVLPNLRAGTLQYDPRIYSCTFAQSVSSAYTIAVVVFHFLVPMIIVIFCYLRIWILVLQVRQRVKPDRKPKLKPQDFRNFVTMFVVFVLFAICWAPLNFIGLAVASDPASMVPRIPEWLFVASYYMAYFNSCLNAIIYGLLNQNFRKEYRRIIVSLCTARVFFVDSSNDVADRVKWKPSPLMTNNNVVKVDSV
T2 sequence (P23975 whole entry): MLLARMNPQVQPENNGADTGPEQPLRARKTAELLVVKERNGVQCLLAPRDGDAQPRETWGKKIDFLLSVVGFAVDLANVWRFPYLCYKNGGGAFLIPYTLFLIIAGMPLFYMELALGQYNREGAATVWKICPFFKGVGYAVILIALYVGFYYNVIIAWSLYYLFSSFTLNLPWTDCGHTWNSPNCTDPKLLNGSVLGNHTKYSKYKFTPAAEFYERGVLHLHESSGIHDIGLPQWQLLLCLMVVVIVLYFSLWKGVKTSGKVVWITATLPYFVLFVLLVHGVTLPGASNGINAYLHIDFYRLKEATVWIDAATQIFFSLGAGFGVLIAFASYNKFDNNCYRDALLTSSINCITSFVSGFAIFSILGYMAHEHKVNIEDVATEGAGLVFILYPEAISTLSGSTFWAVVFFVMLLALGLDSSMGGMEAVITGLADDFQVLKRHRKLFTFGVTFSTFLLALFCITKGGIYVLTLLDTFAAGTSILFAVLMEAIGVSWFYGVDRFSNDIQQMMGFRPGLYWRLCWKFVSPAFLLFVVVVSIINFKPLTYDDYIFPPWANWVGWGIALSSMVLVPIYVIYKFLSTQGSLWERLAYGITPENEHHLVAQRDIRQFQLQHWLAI
T6 sequence (P35462 whole entry): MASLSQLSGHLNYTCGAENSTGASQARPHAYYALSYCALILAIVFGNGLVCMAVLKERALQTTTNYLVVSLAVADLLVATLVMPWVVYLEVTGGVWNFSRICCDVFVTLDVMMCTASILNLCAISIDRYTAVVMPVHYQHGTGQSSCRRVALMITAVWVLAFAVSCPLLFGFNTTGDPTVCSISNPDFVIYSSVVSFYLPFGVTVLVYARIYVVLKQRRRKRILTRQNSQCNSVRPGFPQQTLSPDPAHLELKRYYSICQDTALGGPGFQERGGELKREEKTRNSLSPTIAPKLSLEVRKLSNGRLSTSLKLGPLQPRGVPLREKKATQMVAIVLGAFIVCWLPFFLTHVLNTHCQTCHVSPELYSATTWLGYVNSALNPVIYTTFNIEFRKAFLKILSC
T4 sequence (P41595 whole entry): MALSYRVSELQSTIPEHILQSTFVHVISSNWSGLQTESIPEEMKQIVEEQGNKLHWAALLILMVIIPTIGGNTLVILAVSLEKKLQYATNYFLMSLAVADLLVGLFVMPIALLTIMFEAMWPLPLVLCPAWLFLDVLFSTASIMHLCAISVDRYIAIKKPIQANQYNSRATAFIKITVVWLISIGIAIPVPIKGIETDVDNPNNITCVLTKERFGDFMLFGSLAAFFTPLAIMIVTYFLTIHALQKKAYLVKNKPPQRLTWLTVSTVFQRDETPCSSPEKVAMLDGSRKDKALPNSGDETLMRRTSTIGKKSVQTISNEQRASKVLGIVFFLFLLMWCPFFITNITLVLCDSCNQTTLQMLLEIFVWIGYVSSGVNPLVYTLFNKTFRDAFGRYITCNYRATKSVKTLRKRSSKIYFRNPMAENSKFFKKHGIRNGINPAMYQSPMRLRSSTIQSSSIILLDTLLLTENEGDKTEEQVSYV
T9 sequence (P31645 whole entry): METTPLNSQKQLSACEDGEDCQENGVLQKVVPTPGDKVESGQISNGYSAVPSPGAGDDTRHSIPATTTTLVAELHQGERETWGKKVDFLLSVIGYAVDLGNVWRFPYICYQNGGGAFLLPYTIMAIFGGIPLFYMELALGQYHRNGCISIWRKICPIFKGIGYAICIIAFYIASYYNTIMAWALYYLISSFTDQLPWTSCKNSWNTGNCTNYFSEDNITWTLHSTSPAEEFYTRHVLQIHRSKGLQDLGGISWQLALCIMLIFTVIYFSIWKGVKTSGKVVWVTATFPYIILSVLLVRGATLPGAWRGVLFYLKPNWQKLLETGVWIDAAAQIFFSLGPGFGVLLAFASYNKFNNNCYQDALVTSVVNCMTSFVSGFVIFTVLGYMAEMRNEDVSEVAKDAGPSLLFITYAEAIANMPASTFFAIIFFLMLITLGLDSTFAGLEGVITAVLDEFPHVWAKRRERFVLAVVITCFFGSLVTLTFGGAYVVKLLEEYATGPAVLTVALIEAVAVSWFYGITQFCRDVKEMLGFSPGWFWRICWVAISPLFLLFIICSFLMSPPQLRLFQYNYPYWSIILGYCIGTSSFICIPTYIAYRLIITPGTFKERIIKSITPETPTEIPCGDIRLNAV
T1 sequence (P28222 whole entry): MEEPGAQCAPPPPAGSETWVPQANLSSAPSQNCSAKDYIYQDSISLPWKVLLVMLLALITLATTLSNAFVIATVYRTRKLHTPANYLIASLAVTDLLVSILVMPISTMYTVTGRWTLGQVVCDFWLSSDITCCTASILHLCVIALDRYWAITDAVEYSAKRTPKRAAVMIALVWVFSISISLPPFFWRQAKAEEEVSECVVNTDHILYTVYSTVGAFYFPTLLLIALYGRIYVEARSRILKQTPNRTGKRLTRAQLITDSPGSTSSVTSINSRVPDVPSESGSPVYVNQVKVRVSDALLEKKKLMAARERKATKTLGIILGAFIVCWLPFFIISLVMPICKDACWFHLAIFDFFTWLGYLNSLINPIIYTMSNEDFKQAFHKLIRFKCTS
T7 sequence (P14416 whole entry): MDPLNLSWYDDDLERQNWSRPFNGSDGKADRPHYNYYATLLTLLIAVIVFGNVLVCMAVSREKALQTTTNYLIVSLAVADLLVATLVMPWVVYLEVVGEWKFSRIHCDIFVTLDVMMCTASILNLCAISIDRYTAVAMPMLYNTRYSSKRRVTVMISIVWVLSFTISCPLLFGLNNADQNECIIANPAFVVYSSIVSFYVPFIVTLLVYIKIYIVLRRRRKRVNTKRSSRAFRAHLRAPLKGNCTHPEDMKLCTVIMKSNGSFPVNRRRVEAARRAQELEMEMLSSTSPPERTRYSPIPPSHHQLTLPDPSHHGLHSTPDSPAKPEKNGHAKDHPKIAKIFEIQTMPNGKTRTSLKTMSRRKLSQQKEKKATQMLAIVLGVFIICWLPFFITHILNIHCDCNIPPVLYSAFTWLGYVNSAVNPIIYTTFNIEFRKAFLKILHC
T12 sequence (Q01959 whole entry): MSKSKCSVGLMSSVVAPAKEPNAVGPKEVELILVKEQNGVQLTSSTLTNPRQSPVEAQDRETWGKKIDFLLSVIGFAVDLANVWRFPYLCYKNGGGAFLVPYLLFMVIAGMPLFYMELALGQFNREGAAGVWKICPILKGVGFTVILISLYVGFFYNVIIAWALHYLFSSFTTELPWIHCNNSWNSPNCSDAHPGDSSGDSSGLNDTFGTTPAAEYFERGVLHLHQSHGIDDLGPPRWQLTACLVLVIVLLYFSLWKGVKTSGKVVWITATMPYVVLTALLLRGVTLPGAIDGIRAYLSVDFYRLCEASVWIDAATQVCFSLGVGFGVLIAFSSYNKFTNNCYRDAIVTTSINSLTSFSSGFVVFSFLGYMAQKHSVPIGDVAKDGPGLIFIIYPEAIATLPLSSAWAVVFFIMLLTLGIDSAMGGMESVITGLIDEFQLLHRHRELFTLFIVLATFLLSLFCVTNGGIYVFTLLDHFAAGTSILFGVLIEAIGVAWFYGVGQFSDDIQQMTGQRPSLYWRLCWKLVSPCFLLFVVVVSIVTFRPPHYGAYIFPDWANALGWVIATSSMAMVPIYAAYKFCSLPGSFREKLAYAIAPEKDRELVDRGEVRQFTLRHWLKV
T5 sequence (P34969 whole entry): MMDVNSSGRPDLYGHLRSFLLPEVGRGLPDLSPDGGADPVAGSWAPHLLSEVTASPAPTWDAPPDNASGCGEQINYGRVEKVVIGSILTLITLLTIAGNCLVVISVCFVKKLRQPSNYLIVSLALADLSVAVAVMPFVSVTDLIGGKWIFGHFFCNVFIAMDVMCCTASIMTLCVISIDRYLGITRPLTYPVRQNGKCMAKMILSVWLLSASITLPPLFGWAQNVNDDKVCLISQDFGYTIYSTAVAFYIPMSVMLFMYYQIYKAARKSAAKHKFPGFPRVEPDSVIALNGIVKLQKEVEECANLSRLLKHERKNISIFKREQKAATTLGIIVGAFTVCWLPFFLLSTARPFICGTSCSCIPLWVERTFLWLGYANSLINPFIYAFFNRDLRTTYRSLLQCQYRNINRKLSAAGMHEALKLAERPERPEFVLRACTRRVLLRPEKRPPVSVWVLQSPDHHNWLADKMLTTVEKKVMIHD

SMILES | HT1B, percent of control-specific binding (5-HT1B (h)) [%] | NET, percent of control-specific binding (NET (h)) [%] | MT1, percent of control-specific binding (MT1 (ML1A) (h)) [%] | HT2B, percent of control-specific binding (5-HT2B (h)) [%] | HT7, percent of control-specific binding (5-HT7 (h)) [%] | D3, percent of control-specific binding (D3 (h)) [%] | D2, percent of control-specific binding (D2 (h)) [%] | Ki (5-HT1A receptor) [µM] | Ki [1] [µM] | HT2C, percent of control-specific binding (5-HT2C (h)) [%] | inhibition at 10 µM (alpha2A (h)) [%] | DAT, percent of control-specific binding (DAT (h)) [%] | HT1D, percent of control-specific binding (5-HT1D (r)) [%] | α-2A, percent of control-specific binding (alpha2A (h)) [%] | 5-HT1A receptor binding, binding curve in words (5-HT1A receptor; FIGS. 35C-35L) | SERT binding, binding curve in words [1]
CON(C)C(C)Cc1ccc2c(c1)OCO2 (stereo not shown) [A(XVIII)] | 6 | 1 | 6 | 9 | 6 | 5 | 0 | > 1000 | 98 | 3 | 0 | 5 | 0 |  |  | 
COc1cc2c(cc1CC(=O)NCCO)OCO2 [A(XXII)] | 0 | 1 | 18 | 14 | 20 | 3 | 0 | > 1000 | 52.3 | 15 | 0 | 0 | 5 |  |  | 
COc1ccc2cccc(CCNC(C)=O)c2c1 [Agomelatine, reference compound] | −9 | 1 | 99 | 93 |  | 6 | −4 |  |  | 92 | 2 | 1 | 10 |  |  | 
CC(NC(C)(C)C)C(=O)c1cccc(Cl)c1 (stereo not shown) [Bupropion, reference compound] | 9 |  | 83 | −2 |  | 3 | −5 |  |  | 1 | 2 | 92 | −1 |  |  | 
COc1cc(CC(C)N)c(OC)cc1Br (stereo not shown) [DOB, reference compound] | 20 | 6 | −3 | 97 | 65 | 25 | 9 |  |  |  |  | 3 | 84 | 66 |  | 
CNCC[C@H](Oc1cccc2ccccc12)c1cccs1 [Duloxetine, reference compound] | 52 |  | 23 | 95 |  | 66 | 24 |  |  | 92 |  |  | 63 |  |  | 
CN(C)CCCN1c2ccccc2CCc2ccccc21 [Imipramine, reference compound] | 36 | 99 | 29 | 94 |  | 92 | 82 |  |  | 98 | 57 | 23 | 39 |  |  | 
COc1ccc2[nH]cc(CCNC(C)=O)c2c1 [Melatonin, reference compound] | 0 | −2 | 98 | 52 |  | 2 | −20 |  |  | 19 | -7 | 4 | 13 |  |  | 
O=c1n(CCCN2CCN(c3cccc(Cl)c3)CC2)nc2ccccn12 [Trazodone, reference compound] | 61 | −1 | 14 | 97 |  | 89 | 61 |  |  | 93 | 91 | 24 |  |  |  | 
N#Cc1ccc2[nH]cc(CCCCN3CCN(c4ccc5oc(C(N)=O)cc5c4)CC3)c2c1 [Vilazodone, reference compound] | 67 | 99 | 84 | 96 |  | 99 | 97 |  |  | 92 | 65 | 98 | 97 |  |  | 
N[C@@H](Cc1c[nH]c2ccccc12)C(=O)O [tryptophan, reference compound] | −22 | 1 | −2 | 0 |  | −23 | −19 | > 1000 | > 1000 | 25 | -4 | 1 | 3 |  | no binding | no binding to SERT
Cc1ccc(Sc2ccccc2N2CCNCC2)c(C)c1 [vortioxetine, reference compound] | 101 | 99 | 26 | 97 |  | 88 | 51 |  | 0.00203 | 99 | 62 | 90 | 100 |  |  | very tight interaction
